The record followed here is ChEMBL document CHEMBL1909046, “DrugMatrix in vitro pharmacology data”.

For assay [1], the target named is Beta-2 adrenergic receptor (Homo sapiens, UniProt P07550). Briefly: DRUGMATRIX: Adrenergic beta2 radioligand binding (ligand: [3H] CGP-12177). The class given is cell membranes, Membrane. Conditions: cho; Not Active = under 50% inhibition at 10 µM.
The target in assay [2] is 5-hydroxytryptamine receptor 2B (Homo sapiens, UniProt P41595). The class given is cell membranes, CHO-K1, Membrane. Note: in other assays of this panel Not Active means under 50% inhibition at 10 µM.
Sequence of 5-hydroxytryptamine receptor 2B (P41595 whole entry): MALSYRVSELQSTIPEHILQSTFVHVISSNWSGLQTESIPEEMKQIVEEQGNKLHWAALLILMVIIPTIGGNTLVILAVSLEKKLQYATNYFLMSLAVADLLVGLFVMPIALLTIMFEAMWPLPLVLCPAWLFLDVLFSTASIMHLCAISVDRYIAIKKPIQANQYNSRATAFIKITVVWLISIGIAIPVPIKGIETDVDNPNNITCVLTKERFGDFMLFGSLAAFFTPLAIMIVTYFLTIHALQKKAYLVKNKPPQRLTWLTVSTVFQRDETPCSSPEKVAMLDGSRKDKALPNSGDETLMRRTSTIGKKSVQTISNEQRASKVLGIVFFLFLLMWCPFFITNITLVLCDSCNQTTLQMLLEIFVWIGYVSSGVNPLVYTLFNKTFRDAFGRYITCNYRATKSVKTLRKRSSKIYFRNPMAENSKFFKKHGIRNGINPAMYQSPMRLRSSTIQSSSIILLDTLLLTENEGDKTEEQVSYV
In a further assay the target is T1, D(4) dopamine receptor (Homo sapiens, UniProt P21917).
T1 sequence (P21917 whole entry): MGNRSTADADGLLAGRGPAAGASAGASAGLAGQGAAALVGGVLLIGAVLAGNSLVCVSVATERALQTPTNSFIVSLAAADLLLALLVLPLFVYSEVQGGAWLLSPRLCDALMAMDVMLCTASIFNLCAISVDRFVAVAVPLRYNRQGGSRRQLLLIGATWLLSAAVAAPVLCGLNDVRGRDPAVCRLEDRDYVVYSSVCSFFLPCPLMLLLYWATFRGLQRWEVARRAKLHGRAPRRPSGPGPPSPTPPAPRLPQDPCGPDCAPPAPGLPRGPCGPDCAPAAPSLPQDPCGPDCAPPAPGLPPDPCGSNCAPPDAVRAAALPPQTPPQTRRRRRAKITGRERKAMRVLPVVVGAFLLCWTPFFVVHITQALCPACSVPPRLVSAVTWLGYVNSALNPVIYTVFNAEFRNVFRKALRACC
Briefly: DRUGMATRIX: Dopamine D4.2 radioligand binding (ligand: [3H] Spiperone). Type of assay: cell membranes, CHO-K1, Membrane. The following applies: Not Active = under 50% inhibition at 10 µM.

Another assay has as its target Histamine H2 receptor (Homo sapiens, UniProt P25021). Type of assay: cell membranes, CHO-K1, Membrane. Note: in other assays of this panel Not Active means under 50% inhibition at 10 µM.
The next assay has as its target T2, Leukotriene C4 synthase (Cavia porcellus, UniProt A6XA80).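 Note: enzyme inhibition assay of leukotriene C4 synthase, using LTA4 as the substrate; in other assays of this panel Not Active means under 50% inhibition at 10 µM.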
T2 sequence (A6XA80 whole entry): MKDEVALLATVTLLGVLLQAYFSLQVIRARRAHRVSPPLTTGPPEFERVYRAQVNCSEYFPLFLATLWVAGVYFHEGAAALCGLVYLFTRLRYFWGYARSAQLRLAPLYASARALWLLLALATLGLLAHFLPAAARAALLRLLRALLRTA
The class given is tissue-based, Lung.

Assay [3] has as its target Protein phosphatase 3 catalytic subunit alpha (Homo sapiens, UniProt Q08209). The arrangement: species or system Escherichia coli.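 Note: inhibition of calcineurin (PP2B) enzyme activity, measured with DiFMUP as the substrate; in other assays of this panel Not Active means under 50% inhibition at 10 µM.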

Sequence of Histamine H2 receptor (P25021 whole entry): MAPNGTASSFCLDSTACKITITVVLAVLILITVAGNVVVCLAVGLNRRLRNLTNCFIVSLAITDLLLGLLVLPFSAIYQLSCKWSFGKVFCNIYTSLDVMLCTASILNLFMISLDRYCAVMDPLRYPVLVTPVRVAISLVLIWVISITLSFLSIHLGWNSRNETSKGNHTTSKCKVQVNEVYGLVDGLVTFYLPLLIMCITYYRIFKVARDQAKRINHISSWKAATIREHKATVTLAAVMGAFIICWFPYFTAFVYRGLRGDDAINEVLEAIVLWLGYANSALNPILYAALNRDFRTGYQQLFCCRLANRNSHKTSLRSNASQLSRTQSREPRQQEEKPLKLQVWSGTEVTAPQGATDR

Broadly, the IC50 is the midpoint of a concentration-inhibition curve. For `CSc1ccc(/C=C2/C(C)=C(CC(=O)O)c3cc(F)ccc32)cc1` [SULINDAC SULFIDE], the half-maximal inhibitory concentration (IC50) entry (in assay [1]; in assay [2] (cho-k1); at D(4) dopamine receptor (cho-k1); against Histamine H2 receptor (cho-k1); against Leukotriene C4 synthase; in assay [3]) was “Not Active” throughout.

Turning to `CC(=O)[C@@]1(O)CC[C@H]2[C@@H]3C[C@H](C)C4=CC(=O)CC[C@]4(C)[C@H]3CC[C@@]21C`, the IC50 entry (in assay [1]; in assay [2] (cho-k1); on D(4) dopamine receptor (cho-k1); against Histamine H2 receptor (cho-k1); on Leukotriene C4 synthase; in assay [3]) was “Not Active” throughout.

As to `Cc1noc(NS(=O)(=O)c2ccc(N)cc2)c1C` [SULFISOXAZOLE], the IC50 result (in assay [1]; in assay [2] (cho-k1); on D(4) dopamine receptor (cho-k1); at Histamine H2 receptor (cho-k1); on Leukotriene C4 synthase; in assay [3]) was “Not Active” throughout.

For the compound `N[C@@H](Cc1ccc(O)c(O)c1)C(=O)O` [LEVODOPA], the IC50 result (in assay [1]; in assay [2] (cho-k1); on D(4) dopamine receptor (cho-k1); on Histamine H2 receptor (cho-k1); on Leukotriene C4 synthase; in assay [3]) was “Not Active” each time.

Turning to `NS(=O)(=O)c1cc2c(cc1Cl)NC(C(Cl)Cl)NS2(=O)=O` (configuration not stated) [TRICHLORMETHIAZIDE], the IC50 result (in assay [1]; in assay [2] (cho-k1); on D(4) dopamine receptor (cho-k1); against Histamine H2 receptor (cho-k1); at Leukotriene C4 synthase; in assay [3]) was “Not Active” throughout.

`Nc1c2c(nc3ccccc13)CCCC2` [TACRINE]: the IC50 result (in assay [1]; in assay [2] (cho-k1); on D(4) dopamine receptor (cho-k1); against Histamine H2 receptor (cho-k1); at Leukotriene C4 synthase; in assay [3]) was “Not Active” throughout.

For the compound `NC[C@H]1CC[C@H](C(=O)O)CC1` [TRANEXAMIC ACID], the IC50 entry (in assay [1]; in assay [2] (cho-k1); at D(4) dopamine receptor (cho-k1); against Histamine H2 receptor (cho-k1); against Leukotriene C4 synthase; in assay [3]) was “Not Active” in each case.

For the compound `c1ccc([C@H]2CN3CCSC3=N2)cc1` [LEVAMISOLE], the IC50 result (in assay [1]; in assay [2] (cho-k1); at D(4) dopamine receptor (cho-k1); on Histamine H2 receptor (cho-k1); against Leukotriene C4 synthase; in assay [3]) was “Not Active” each time.

With `CC(C)N1CCN(c2ccc(OCC3COC(Cn4cncn4)(c4ccc(Cl)cc4Cl)O3)cc2)CC1` (configuration not stated) [TERCONAZOLE], the IC50 result (in assay [1]; in assay [2] (cho-k1); at D(4) dopamine receptor (cho-k1); against Histamine H2 receptor (cho-k1); against Leukotriene C4 synthase; in assay [3]) was “Not Active” each time.

One may read the Ki as the dissociation constant of the complex between target and ligand, obtained from inhibition or displacement. `CC[C@@H](CO)NC(=O)[C@@H]1C=C2c3cccc4[nH]cc(c34)C[C@H]2N(C)C1` [METHYLERGONOVINE]: the IC50 result in assay [1] was “Not Active”; in assay [2] (read-out: IC50), 0.00151 µM; on D(4) dopamine receptor (cho-k1) it was “Not Active”; on Histamine H2 receptor (cho-k1), “Not Active”; on Leukotriene C4 synthase it was “Not Active”; in assay [3] it was “Not Active”. For the same compound, the Ki in assay [2] (read-out: Ki) came out at 0.000958 µM.

For the compound `CC/C(=C(\c1ccccc1)c1ccc(OCCN(C)C)cc1)c1ccccc1` [TAMOXIFEN], the IC50 result is “Not Active” in assay [1]; 2.08 µM in assay [2] (read-out: IC50); 11.2 µM at D(4) dopamine receptor (read-out: IC50); 9.4 µM on Histamine H2 receptor (read-out: IC50); “Not Active” on Leukotriene C4 synthase; 30.6 µM in assay [3] (read-out: IC50). Moreover, the figures for the inhibitory constant (Ki) (in assay [2] (read-out: Ki); on D(4) dopamine receptor (read-out: Ki); on Histamine H2 receptor (read-out: Ki)) were 1.33 µM, 3.91 µM and 9.24 µM, respectively.

Take SODIUM NITROPRUSSIDE: the IC50 entry (in assay [1]; in assay [2] (cho-k1); on D(4) dopamine receptor (cho-k1); against Histamine H2 receptor (cho-k1); on Leukotriene C4 synthase; in assay [3]) was “Not Active” throughout. The Ki result (in assay [1]; in assay [2] (cho-k1); at D(4) dopamine receptor (cho-k1); on Histamine H2 receptor (cho-k1); on Leukotriene C4 synthase; in assay [3]) was “Not Active” each time.
